Source: US20200148937A1, “INHIBITING HYDROCARBON HYDRATE AGGLOMERATION” (COMMONWEALTH SCIENTIFIC AND INDUSTRIAL RESEARCH ORGANISATION, priority 2017, published 2020)

Assay: X-ray diffraction of the gas hydrates formed
Type: physicochemical
Details: systems 1-3; combination of structure I and structure II hydrate in all three systems
Description: FIG. 17(a) illustrates the X-ray diffraction pattern of the gas hydrates formed in systems 1-3.
The diffraction studies indicate that regardless of the nature of the AA used the XRD pattern of the solids formed are very similar indicating essentially the same hydrate mixtures are formed in each of systems 1-3. In short, there is a combination of structure I and structure II hydrate formed in all three systems considered.

Cc1c(C)c2c(c(C)c1OC(=O)CCC(=O)O)CCC(C)(CCCC(C)CCCC(C)CCCC(C)CCCC(C)C)O2 (stereo not shown) [tocopherol succinate]
effect on structure of the hydrate formed (XRD pattern): does not alter the structure of the hydrate formed
